Legend:
Assay in all cases: KRas binding assay, TR-FRET displacement of Cy5 labelled tracer
Details in all cases: 60-minute incubation at room temperature, 1% DMSO, pH 7.5
[1] = target: T1, KRas WT (Homo sapiens, UniProt P01116)
T1 construct: Biotinylated KRas (corresponding to amino acids 1-169, produced at Accelegan Inc.); biotin (biotinylated); purchased Accelegan Inc
Procedure: (§1) This Example illustrates that exemplary compounds of the present invention bind to KRas and are capable of displacing a labeled tracer ligand occupying the KRas binding site. KRas^WT, KRas^G12A, KRas^G12C, KRas^G12D, KRas^G12R, KRas^G12S, KRas^G12V, KRas^G13D, or KRas^Q61H was used in the assay.
(§2) The ability of a compound to bind to KRas was measured using a TR-FRET displacement assay. Biotinylated KRas (corresponding to amino acids 1-169, produced at Accelegan Inc.) was incubated with custom made Cy5 labelled tracer, terbium streptavidin (Cisbio Inc.) and compound (1% DMSO final) in buffer (50 mM HEPES, pH 7.5, 5 mM MgCl2, 0.005% Tween-20 and 1 mM DTT). After a 60-minute incubation at room temperature, the reaction was measured using a BMG LABTECH CLARIO star Plus via TR-FRET. […] The POC values were fit to a 4-parameter IC50 equation and the IC50 value reported.

[2] = target: T2, KRas G12C (Homo sapiens, UniProt P01116, G12C)
T2 construct: Biotinylated KRas (corresponding to amino acids 1-169, produced at Accelegan Inc.); biotin (biotinylated); purchased Accelegan Inc
Procedure: as §1, §2

[3] = target: T3, KRas G12S (Homo sapiens, UniProt P01116, G12S)
T3 construct: Biotinylated KRas (corresponding to amino acids 1-169, produced at Accelegan Inc.); biotin (biotinylated); purchased Accelegan Inc
Procedure: as §1, §2

T2 sequence (P01116 1-169 isoform P01116-2 G12C): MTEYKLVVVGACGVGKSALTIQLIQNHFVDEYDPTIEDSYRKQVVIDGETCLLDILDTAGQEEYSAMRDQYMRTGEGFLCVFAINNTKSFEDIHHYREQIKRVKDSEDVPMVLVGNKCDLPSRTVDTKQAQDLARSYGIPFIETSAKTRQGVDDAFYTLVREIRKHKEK
T3 sequence (P01116 1-169 isoform P01116-2 G12S): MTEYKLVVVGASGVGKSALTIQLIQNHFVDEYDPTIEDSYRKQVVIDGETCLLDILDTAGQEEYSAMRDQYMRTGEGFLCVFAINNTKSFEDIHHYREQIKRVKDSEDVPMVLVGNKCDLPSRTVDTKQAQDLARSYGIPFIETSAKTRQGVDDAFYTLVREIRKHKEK
T1 sequence (P01116 1-169 isoform P01116-2): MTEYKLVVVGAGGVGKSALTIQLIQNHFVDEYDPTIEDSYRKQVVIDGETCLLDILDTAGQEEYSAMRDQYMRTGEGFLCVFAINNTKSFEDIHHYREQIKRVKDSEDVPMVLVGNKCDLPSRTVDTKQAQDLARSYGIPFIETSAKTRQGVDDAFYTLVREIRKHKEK

Compound	IC50 [1]	IC50 [2]	IC50 [3]
N#Cc1ccccc1OC(=O)[C@@H]1[C@@H]2CC[C@H]1CN(c1nc(OCC34CCCN3CCC4)nc3c(F)c(-c4cccc5cccc(F)c45)ncc13)C2 [Example 21, 2-cyanophenyl (1R,5S,8r)-3-(8-fluoro-7-(8-fluoronaphthalen-1-yl)-2-((tetrahydro-1H-pyrrolizin-7a(5H)-yl)methoxy)pyrido[4,3-d]pyrimidin-4-yl)-3-azabicyclo[3.2.1]octane-8-carboxylate]	52200 nM	15900 nM	> 100000 nM
O=C(Oc1ccc(F)c(F)c1)[C@@H]1[C@@H]2CC[C@H]1CN(c1nc(OCC34CCCN3CCC4)nc3c(F)c(-c4cccc5cccc(F)c45)ncc13)C2 [Example 23, 3,4-difluorophenyl (1R,5S,8r)-3-(8-fluoro-7-(8-fluoronaphthalen-1-yl)-2-((tetrahydro-1H-pyrrolizin-7a(5H)-yl)methoxy)pyrido[4,3-d]pyrimidin-4-yl)-3-azabicyclo[3.2.1]octane-8-carboxylate]	11800 nM	34800 nM	61600 nM
O=C(Oc1ccccc1F)[C@@H]1[C@@H]2CC[C@H]1CN(c1nc(OCC34CCCN3CCC4)nc3c(F)c(-c4cccc5cccc(F)c45)ncc13)C2 [Example 25, 2-fluorophenyl (1R,5S,8s)-3-(8-fluoro-7-(8-fluoronaphthalen-1-yl)-2-((tetrahydro-1H-pyrrolizin-7a(5H)-yl)methoxy)pyrido[4,3-d]pyrimidin-4-yl)-3-azabicyclo[3.2.1]octane-8-carboxylate]	10900 nM	66900 nM	> 100000 nM
O=C(Oc1ccccc1)[C@@H]1[C@@H]2CC[C@H]1CN(c1nc(OCC34CCCN3CCC4)nc3c(F)c(-c4cccc5cccc(F)c45)ncc13)C2 [Example 26, phenyl (1R,5S,8r)-3-(8-fluoro-7-(8-fluoronaphthalen-1-yl)-2-((tetrahydro-1H-pyrrolizin-7a(5H)-yl)methoxy)pyrido[4,3-d]pyrimidin-4-yl)-3-azabicyclo[3.2.1]octane-8-carboxylate]	10600 nM	92800 nM	75600 nM
N#Cc1cccc(OC(=O)C2CCN(c3nc(OCC45CCCN4CCC5)nc4c(F)c(-c5cccc6cccc(F)c56)ncc34)CC2)c1 [Example 28, 3-cyanophenyl 1-(8-fluoro-7-(8-fluoronaphthalen-1-yl)-2-((tetrahydro-1H-pyrrolizin-7a(5H)-yl)methoxy)pyrido[4,3-d]pyrimidin-4-yl)piperidine-4-carboxylate]	> 100000 nM	724 nM	74700 nM
O=C(OCC(F)(F)F)C1CCN(c2nc(OCC34CCCN3CCC4)nc3c(F)c(-c4cccc5cccc(F)c45)ncc23)CC1 [Example 31, 2,2,2-trifluoroethyl 1-(8-fluoro-7-(8-fluoronaphthalen-1-yl)-2-((tetrahydro-1H-pyrrolizin-7a(5H)-yl)methoxy)pyrido[4,3-d]pyrimidin-4-yl)piperidine-4-carboxylate]	39400 nM	> 100000 nM	> 100000 nM
O=C(Oc1cc(F)cc(F)c1)C1CCN(c2nc(OCC34CCCN3CCC4)nc3c(F)c(-c4cccc5cccc(F)c45)ncc23)CC1 [Example 33, 3,5-difluorophenyl 1-(8-fluoro-7-(8-fluoronaphthalen-1-yl)-2-((tetrahydro-1H-pyrrolizin-7a(5H)-yl)methoxy)pyrido[4,3-d]pyrimidin-4-yl)piperidine-4-carboxylate]	> 100000 nM	10700 nM	> 100000 nM
O=C(Oc1ccccc1F)C1CCN(c2nc(OCC34CCCN3CCC4)nc3c(F)c(-c4cccc5cccc(F)c45)ncc23)CC1 [Example 35, 2-fluorophenyl 1-(8-fluoro-7-(8-fluoronaphthalen-1-yl)-2-((tetrahydro-1H-pyrrolizin-7a(5H)-yl)methoxy)pyrido[4,3-d]pyrimidin-4-yl)piperidine-4-carboxylate]	92600 nM	321 nM	47500 nM
O=C(Oc1ccc(F)c(F)c1)[C@H]1CCN(c2nc(OCC34CCCN3CCC4)nc3c(F)c(-c4cccc5cccc(F)c45)ncc23)C[C@H]1O [Example 36, 3,4-difluorophenyl (3S,4S)-1-(8-fluoro-7-(8-fluoronaphthalen-1-yl)-2-((tetrahydro-1H-pyrrolizin-7a(5H)-yl)methoxy)pyrido[4,3-d]pyrimidin-4-yl)-3-hydroxypiperidine-4-carboxylate]	> 100000 nM	18900 nM	> 100000 nM
O=C(Oc1ccc(F)c(F)c1)[C@@H]1CCN(c2nc(OCC34CCCN3CCC4)nc3c(F)c(-c4cccc5cccc(F)c45)ncc23)C[C@@H]1O [Example 37, 3,4-difluorophenyl (3R,4R)-1-(8-fluoro-7-(8-fluoronaphthalen-1-yl)-2-((tetrahydro-1H-pyrrolizin-7a(5H)-yl)methoxy)pyrido[4,3-d]pyrimidin-4-yl)-3-hydroxypiperidine-4-carboxylate]	20400 nM	7290 nM	20400 nM
O=CC1CCN(c2nc(OCC34CCCN3CCC4)nc3c(F)c(-c4cccc5cccc(F)c45)ncc23)CC1 [Example 38, 1-(8-fluoro-7-(8-fluoronaphthalen-1-yl)-2-((tetrahydro-1H-pyrrolizin-7a(5H)-yl)methoxy)pyrido[4,3-d]pyrimidin-4-yl)piperidine-4-carbaldehyde]	19300 nM	761 nM	27900 nM

Second part, the compound after the results:

IC50 [1]	IC50 [2]	IC50 [3]	Compound
14100 nM	95200 nM	> 100000 nM	N#Cc1cccc(OC(=O)[C@@H]2[C@@H]3CC[C@H]2CN(c2nc(OCC45CCCN4CCC5)nc4c(F)c(-c5cccc6cccc(F)c56)ncc24)C3)c1 [Example 22, 3-cyanophenyl (1R,5S,8r)-3-(8-fluoro-7-(8-fluoronaphthalen-1-yl)-2-((tetrahydro-1H-pyrrolizin-7a(5H)-yl)methoxy)pyrido[4,3-d]pyrimidin-4-yl)-3-azabicyclo[3.2.1]octane-8-carboxylate]
17700 nM	30500 nM	> 100000 nM	O=C(Oc1c(F)cccc1F)[C@@H]1[C@@H]2CC[C@H]1CN(c1nc(OCC34CCCN3CCC4)nc3c(F)c(-c4cccc5cccc(F)c45)ncc13)C2 [Example 24, 2,6-difluorophenyl (1R,5S,8r)-3-(8-fluoro-7-(8-fluoronaphthalen-1-yl)-2-((tetrahydro-1H-pyrrolizin-7a(5H)-yl)methoxy)pyrido[4,3-d]pyrimidin-4-yl)-3-azabicyclo[3.2.1]octane-8-carboxylate]
89200 nM	452 nM	> 100000 nM	N#Cc1ccccc1OC(=O)C1CCN(c2nc(OCC34CCCN3CCC4)nc3c(F)c(-c4cccc5cccc(F)c45)ncc23)CC1 [Example 27, 2-cyanophenyl 1-(8-fluoro-7-(8-fluoronaphthalen-1-yl)-2-((tetrahydro-1H-pyrrolizin-7a(5H)-yl)methoxy)pyrido[4,3-d]pyrimidin-4-yl)piperidine-4-carboxylate]
90500 nM	201 nM	> 100000 nM	N#Cc1ccc(OC(=O)C2CCN(c3nc(OCC45CCCN4CCC5)nc4c(F)c(-c5cccc6cccc(F)c56)ncc34)CC2)cc1 [Example 29, 4-cyanophenyl 1-(8-fluoro-7-(8-fluoronaphthalen-1-yl)-2-((tetrahydro-1H-pyrrolizin-7a(5H)-yl)methoxy)pyrido[4,3-d]pyrimidin-4-yl)piperidine-4-carboxylate]
> 100000 nM	194 nM	32800 nM	O=C(Oc1c(F)cccc1F)C1CCN(c2nc(OCC34CCCN3CCC4)nc3c(F)c(-c4cccc5cccc(F)c45)ncc23)CC1 [Example 30, 2,6-difluorophenyl 1-(8-fluoro-7-(8-fluoronaphthalen-1-yl)-2-((tetrahydro-1H-pyrrolizin-7a(5H)-yl)methoxy)pyrido[4,3-d]pyrimidin-4-yl)piperidine-4-carboxylate]
> 100000 nM	128 nM	43300 nM	O=C(Oc1cccnc1)C1CCN(c2nc(OCC34CCCN3CCC4)nc3c(F)c(-c4cccc5cccc(F)c45)ncc23)CC1 [Example 32, pyridin-3-yl 1-(8-fluoro-7-(8-fluoronaphthalen-1-yl)-2-((tetrahydro-1H-pyrrolizin-7a(5H)-yl)methoxy)pyrido[4,3-d]pyrimidin-4-yl)piperidine-4-carboxylate]
> 100000 nM	7890 nM	> 100000 nM	O=C(Oc1cccc(F)c1F)C1CCN(c2nc(OCC34CCCN3CCC4)nc3c(F)c(-c4cccc5cccc(F)c45)ncc23)CC1 [Example 34, 2,3-difluorophenyl 1-(8-fluoro-7-(8-fluoronaphthalen-1-yl)-2-((tetrahydro-1H-pyrrolizin-7a(5H)-yl)methoxy)pyrido[4,3-d]pyrimidin-4-yl)piperidine-4-carboxylate]
12300 nM	18200 nM	17600 nM	COC(=O)C1CCN(c2nc(OCC34CCCN3CCC4)nc3c(F)c(-c4cccc5cccc(F)c45)ncc23)CC1 [Example 41, methyl 1-(8-fluoro-7-(8-fluoronaphthalen-1-yl)-2-((tetrahydro-1H-pyrrolizin-7a(5H)-yl)methoxy)pyrido[4,3-d]pyrimidin-4-yl)piperidine-4-carboxylate]

— patent US20260356856A1, “KRAS G12S AND G12C INHIBITORS” (MIRATI THERAPEUTICS, INC., priority 2023, published 2026)
